The results in this text go back to patent US20200237909A1, “METHODS OF TREATING OR PREVENTING BREAST CANCER METASTASES USING ANTIBODIES TO JAGGED1 AND CHEMOTHERAPEUTIC AGENTS” (The Trustees of Princeton University, priority 2017, published 2020).

Like-named read-outs stand apart in the source and are kept apart here.

The test system of one data set is MSCs. The data set can be described thus: Stress inducers/inhibitors: Jagged1 expression and ROS production in MSCs. It is filed as cell-based, mouse. The text has this:
Next, which signaling pathway is responsible for Jagged1 induction after chemotherapy in osteoblast lineage cells was investigated. Chemotherapy generates many stress responses in cells, including endoplasmic reticulum stress (ER stress), and oxidative stress. Some of the stress conditions have been associated with the regulation of Jagged1 expression (Paul et al., 2014). Several treatments were used to mimic or inhibit these stress responses and then Jagged1 mRNA and protein levels were analyzed within the cells.
293T, H29-Clone #7, MC3T3-E1 Clone #4(denoted as MC3T3 for abbreviation thereafter), MCF7TR, mouse mesenchymal stromal cell (MSC, isolated from BALB/c), 4T1.2, SCP28, SCP28-Vector and -Jagged1 cells, SCP28, RAW264.7, and SUM1315-M1B1 cells were cultured according to American Type Culture Collection instructions and the inventors' previous studies (Ell et al., 2013; Ren et al., 2008; Sethi et al., 2011; Zheng et al., 2014). MSC cells were derived previously and were cultured in DMEM supplemented with 10% FBS, 30 ng/ml bFGF, 100 U/ml penicillin, and 100 μg/ml streptomycin (Ren et al., 2008). All plasmids were transfected into different cell lines using Lipofectamine 2000 following the manufacturer's manual (Life Technologies, CA, USA). To generate stable cell lines, a pLEX-MCS based lentivirus vector or a pMSCV-hygro based retrovirus vector was used in our study. Lentiviruses were packaged in HEK293T cells while retroviruses were packaged by using H29 cell line. Conditional media from these packaging cells containing viruses were collected 2 days and 3 days after transfection. Recipient cell lines were exposed to conditional media containing viruses supplemented with 2 μg/mL Polybrene for 48 h. Infected cells were selected with puromycin or hygromycin to generate stable expressing cell lines. 293T and H29clone #7 are cell lines from female humans. All other cancer cell lines are breast cancer cell lines from either female human or mouse.

The conditions of data set [1]: mouse, in vivo.
Experimental: (§1) To analyze liver toxicity, the activity of alanine aminotransferase (ALT) and aspartate aminotransferase (AST) in the sera of these mice after the respective drug treatments was measured.
(§2) For IgG or 15D11 antibody treatment, mice were i.p. injected at the dosing of 10 mg/kg, twice a week.
Data set [2] is described as follows: In vivo toxicity of 15D11 (body weight, GI histology, ALT/AST, CBC, T cells).
Experimental: as §1, §2
Data set [3] relates to Notch downstream genes (human HES2, HEY1, HEY2). The data set can be described thus: Notch downstream gene expression in tumor cells co-cultured with MSC after chemotherapy. Type of data set: cell-based. The conditions noted are these: co-culture tumor cells after chemotherapy.

In the case of `C[C@H]1CCC/C=C/[C@@H]2C[C@H](O)C[C@H]2[C@H](O)/C=C/C(=O)O1` [Brefeldin A (BFA), Brefeldin A], the “Jagged1 expression in MSCs” value in the data set with MSCs was “did not induce Jagged1 expression”.
`ClC(Cl)(Cl)Cl` [CCl4]: in data set [1], the “liver toxicity: ALT and AST activity in sera” value is on record as “dramatic increase”.
For `O=S1(=O)N[C@@]2(CN1CC(F)(F)F)[C@@H]1CC[C@H]2Cc2ccc(/C=C/CN3CCC(C(F)(F)F)CC3)cc2C1` [GSI], the “general toxicity based on body weight measurement” value in data set [2] (15D11 10 mg/kg, twice a week) was “significant weight loss”. In data set [2] (mouse, in vivo), the “GI track toxicity (H&E and Alcian blue staining)” value was “significant goblet cell metaplasia”; the “liver toxicity: ALT and AST activity in sera” value is “no change”.
Consider `OO` [H2O2], for which the “Jagged1 expression in MSCs” value in the data set with MSCs is on record as “induced a strong Jagged1 expression”.
On to `CC(=O)N[C@@H](CS)C(=O)O` [N-Acetyl Cysteine], for which, in the data set with MSCs (MSCs), the “block of cisplatin and docetaxel induced ROS production” value is recorded as “completely blocked”; the “block of cisplatin-induced Jagged1 expression” value was “completely blocked”.
Turning to `CC(=O)O[C@@]12CO[C@@H]1C[C@H](O)[C@@]1(C)C(=O)[C@H](O)C3=C(C)[C@@H](OC(=O)[C@H](O)[C@@H](NC(=O)OC(C)(C)C)c4ccccc4)C[C@@](O)([C@@H](OC(=O)c4ccccc4)[C@H]21)C3(C)C` [docetaxel], the “Notch downstream genes HES2, HEY1, HEY2” value in data set [3] is given as “significantly upregulated”. Besides, the “ROS production in MSCs” value in the data set on MSCs is given as “induced ROS production”.
Regarding Tunicamycin, the “Jagged1 expression in MSCs” value with MSCs is given as “did not induce Jagged1 expression”.
